Here are results for 2 molecules from patent US20180028520A1, “METHODS AND PHARMACEUTICAL COMPOSITIONS FOR TREATMENT OF AMYOTROPHIC LATERAL SCLEROSIS” (priority 2014, published 2018).

The test system of one test is ALS iPS-MNs. As to the kind of experiment: AIS (axon initial segment) length by ankyrin G immunostaining. The format is cell-based, human. As to conditions: data not shown.
The test system of test [1] is brain slices derived from a mouse model of tauopathy. As to conditions: inhibition of PLDs; cited from earlier work.

Each structure is given as a SMILES string.

In the case of `C=C(C)[C@H]1CN[C@H](C(=O)O)[C@H]1CC(=O)O` [kainate, kainic acid], the “effect on shortening of the AIS” value in the test with ALS iPS-MNs is “further exacerbated”. On to `O=C(NCCN1CCC(n2c(=O)[nH]c3ccccc32)CC1)c1cc2cc(F)ccc2[nH]1` [FIPI, 5-fluoro-2-indolyl des-chlorohalopemide], for which the “effect on insoluble tau aggregates” value in test [1] is given as “increased insoluble tau aggregates”.
